In US20140343118A1, “METHODS OF TREATMENT USING ARYLCYCLOPROPYLAMINE COMPOUNDS” (Duke University, priority 2013, published 2014):
Values belong to the molecule of their own block, whether it stands above or below them.

Columns and labels:
[1] = system: MDA-MB-231 cells; settings: MDA-MB-231, 24 h, up to 500 μM
[2] = system: MCF7 cells; settings: MCF7, 24 h, up to 500 μM
[3] = system: MCF7 cells; experiment: Cell cycle analysis (BrdU/PI flow cytometry); type: cell-based; settings: MCF7, 250 μM, 24 hours
Method: MCF7 cells were seeded at 400,000 cells per well in 6 well plates in DMEM/F12 (Invitrogen) containing 8% FBS, 1 mM sodium pyruvate and 0.1 mM non-essential amino acids. After 24 h, the cells were treated with fresh media containing the 250 μM inhibitor. After 48 h of treatment, the cells were pulsed for 2 h with BrdU (10 μg mL^−1). The cells were trypsinized and collected using cold IFA buffer (3 mL) (4% charcoal stripped FBS, 150 mM sodium chloride, 10 mM HEPES, pH 7.5). They were washed with PBS, resuspended in 1 mL of PBS and fixed with 70% ethanol. The cells were incubated for 30 min on ice and then stored at −20° C. The cells were washed with PBS containing 0.5% BSA. The pellet was denatured with 2 M hydrochloric acid containing 0.5% BSA. The residual acid was neutralized using 0.1M sodium borate, pH 8.5. The cell pellet was resuspended in dilute anti-BrdU-alexa fluor-488 antibody (Molecular Probes) (PBS+0.5% Tween 20+0.5% BSA+5% antibody). After washing excess away, the cell pellets were resuspended in PI+RNase A (10 μg mL^−1 propidium iodide and 10 μg mL^−1 RNase A in PBS). The cells were vortexed and analyzed using flow cytometry (Accuri C6).

[4] = system: histone H3K4-Me2 and H3K9-Me2 in MCF7 cells; experiment: Western blot of global histone dimethylation; type: cell-based; settings: inhibitors 250 μM for 24 h
Method: (§1) MCF7 cells or MDA-MB 231 cells were seeded in six-well plates. Cells were treated after 48 h with inhibitor for 24 h. Whole-cell extracts were isolated using RIPA buffer [50 mM Tris (pH 8.0), 200 mM NaCl, 1.5 mM MgCl2, 1% Nonidet P-40 (NP40), 1 mM EGTA, 10% glycerol, 50 mM NaF, 2 mM Na3VO4 and 1× protease inhibitor mixture]. Crude histones were extracted from the lysate pellet by resuspending in water and precipitating with 25% TCA. The pellets were washed with acetone and then resuspended. Concentration of whole-cell lysate or resuspended histones was determined using Bio-Rad Bradford reagent using BSA for standard curve. For each sample, proteins were resolved by SDS-PAGE and transferred to a PVDF membrane (Biorad).
(§2) H3K4-Me2 was detected using polyclonal rabbit antibody (Millipore 07-030). H3K9-Me2 was detected using a monoclonal mouse antibody (Abcam ab1220). Total H3 was detected using a polyclonal rabbit antibody (Abcam ab1791). LSD1 was detected using a monoclonal rabbit antibody (Millipore 05-939) or polyclonal rabbit antibody (Abcam ab17721). ERα (D12) was detected using monoclonal mouse antibody (Santa Cruz sc-8005). GAPDH was detected using polyclonal goat antibody (Santa Cruz sc-20357). Secondary antibodies were purchased from Bio-Rad.

[5] = system: histone H3K4-Me2 and H3K9-Me2 in MDA-MB-231 cells; experiment: Western blot of global histone dimethylation; type: cell-based; settings: inhibitors 250 μM for 24 h
Method: as §1, §2

[6] = system: HCC1937 cells; settings: HCC1937, 250 μM every other day for 10 days
Method: (§3) After 2 d, the cells were treated with fresh media containing the inhibitors at the concentrations indicated. Every 2 d, for a total of 6 or 10 d, respectively, the cells were treated similarly. […] Data are presented as the mean±SEM for triplicate wells in one representative experiment.

[7] = system: HCC1143 cells; settings: HCC1143, 250 μM every other day for 10 days
Method: as §3

[8] = system: MDA-MB-231 cells; experiment: Cell proliferation assay (total DNA content); type: cell-based; settings: MDA-MB-231, 250 μM every other day for 10 days
Method: as §3

[9] = system: MCF7 cells; experiment: Cell proliferation assay (total DNA content); type: cell-based; settings: MCF7, 250 μM every other day for 10 days
Method: as §3

[10] = molecular target: T1, recombinant LSD1 (Homo sapiens, UniProt O60341); experiment: LSD1 horseradish peroxidase coupled enzyme assay, time-dependent inactivation kinetics; type: biochemical
T1 construct: made in house
Method: For example, compounds may be assayed for their ability to inhibit the enzymatic activity of recombinant LSD1 utilizing a horseradish peroxidase coupled assay for the detection of hydrogen peroxide formed in the demethylase catalytic cycle.
LSD1 overexpression, purification and horseradish peroxidase coupled enzyme assay were performed as previously described.
Inhibitors were prepared as 100 mM stocks in dimethylsulfoxide (DMSO) before dilution into assay reagents at appropriate concentrations. Progress curves for time-dependent enzyme inactivation were fit to Equation 1
Product=(vi/kobs)*(1−exp^−kobs*t) (1)
to obtain values of kobs as a function of inhibitor concentration, which were then fit to Equation 2 to obtain values of kinact and K1.

[11] = molecular target: T2, MAO B (Homo sapiens, UniProt P27338); experiment: Inhibition kinetics of MAO B
T2 sequence (P27338 1-520): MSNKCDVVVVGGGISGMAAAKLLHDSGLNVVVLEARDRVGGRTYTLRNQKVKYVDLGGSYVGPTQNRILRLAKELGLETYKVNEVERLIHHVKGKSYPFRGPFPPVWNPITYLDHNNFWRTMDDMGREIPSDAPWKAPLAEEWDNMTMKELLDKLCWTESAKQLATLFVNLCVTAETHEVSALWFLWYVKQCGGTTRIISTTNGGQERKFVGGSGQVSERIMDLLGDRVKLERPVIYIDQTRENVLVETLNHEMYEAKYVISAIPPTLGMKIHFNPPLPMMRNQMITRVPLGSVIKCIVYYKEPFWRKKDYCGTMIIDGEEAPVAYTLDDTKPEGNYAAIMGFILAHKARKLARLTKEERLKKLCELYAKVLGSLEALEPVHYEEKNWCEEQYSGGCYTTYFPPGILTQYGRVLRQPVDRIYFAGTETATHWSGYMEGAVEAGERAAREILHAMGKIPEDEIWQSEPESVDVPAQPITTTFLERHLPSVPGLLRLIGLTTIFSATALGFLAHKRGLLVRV

Compound: N[C@@H]1C[C@H]1c1ccccc1 (relative stereo) [Compound 2-PCPA, trans-2-Phenylcyclopropylamine]
- induction of apoptosis [1]: did not induce apoptosis
- induction of apoptosis [2]: did not induce apoptosis
- cell cycle arrest (accumulation in G1 and G2/M, decrease in S phase) [3]: growth arrested
- level of global histone H3K4-Me2 [4]: increased
- level of global histone H3K9-Me2 [4]: significant changes were not observed
- level of global histone H3K4-Me2 [5]: robust increases
- level of global histone H3K9-Me2 [5]: robust increases
- cell proliferation [6]: significantly decreased cell proliferation
- cell proliferation [7]: significantly decreased cell proliferation
- cell proliferation [8]: significantly decreased cell proliferation
- cell proliferation [9]: significantly decreased cell proliferation

Compound: CCOc1ccc(C2CC2N)cc1 (stereo not shown) [Compound 1b]
- kinact ([10]; LSD1 inactivation): 0.02 ± 0.002 s⁻¹

Compound: NC1CC1c1ccc(Oc2ccccc2)cc1 (stereo not shown) [Compound 1d]
- kinact [11]: 0.032 ± 0.002 s⁻¹

Compound: NC1CC1c1cccc(OCc2ccccc2)c1 (stereo not shown) [Compound 1e]
- kinact ([10]; LSD1 inactivation): 0.025 ± 0.005 s⁻¹

Compound: CC(C)(C)c1ccc(Sc2ccc(C3CC3N)cc2)cc1 (stereo not shown) [Compound 1f]
- Ki ([10]; LSD1 inactivation): 540 ± 160 µM
- kinact ([10]; LSD1 inactivation): 0.022 ± 0.003 s⁻¹

Compound: C#CCN(C)Cc1ccccc1 [pargyline]
- concentration needed to inhibit LSD1 in vitro [10]: greater than 5 mM
- kinact/KI ([10]; LSD1 inactivation): < 0.2 M⁻¹ s⁻¹
- enzymatic activity remaining ([10]; concentrations as high as 10 mM, prolonged exposure): greater than 70%

The remaining lines, values ahead:

- kinact/KI ([10]; LSD1 inactivation): < 0.6 M⁻¹ s⁻¹
Compound: C#CCNCc1ccccc1 [Compound 2a]

- kinact/KI ([10]; LSD1 inactivation): < 0.8 M⁻¹ s⁻¹
Compound: C#CCNCc1ccc(OC(C)C)cc1 [Compound 2b]

- kinact/KI ([10]; LSD1 inactivation): < 0.3 M⁻¹ s⁻¹
Compound: C#CCNCc1ccc(Oc2ccccc2)cc1 [Compound 2c]
